From PubChem BioAssay AID2060895 (Molecular Pharmacology Branch, DTP, NCI, 2025)
pIC50: −log10 of the molar value.

System: PDC 899932-113-R3-J6 complex spheroid viability
Assay: Anticancer human tumor 899932-113-R3-J6-PDC patient-derived melanoma cell line growth inhibition [RAS]
Settings: for pIC50: curve of first compound; for viability, T/C: stronger effect = lower value
Outline: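 Multi-cell-type spheroids: tumor cells plus HUVEC endothelial cells and mesenchymal stem cells. RAS-pathway inhibitors were combined with targeted agents, each dosed in half-log steps down from clinical Cmax, or from 10 microM when Cmax was unknown.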
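For viability, T/C in this document: spheroids exposed to agents for seven days before readout; 100% = DMSO vehicle control wells.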

## O=C(c1ccc(F)c(F)c1Nc1ccc(I)cc1F)N1CC(O)([C@@H]2CCCCN2)C1 + CCn1c(-c2cccnc2C(C)OC)c2c3cc(ccc31)N1CCOC(CC(NC(=O)C(C(C)C)N(C)C(=O)C3(F)CCN(C(=O)C#CC(C)(C)N(C)C)CC3)C(=O)N3CCCC(N3)C(=O)OCC(C)(C)C2)C1
Second compound 0.000949 µM
  pIC50: 8.09
Second compound 0.003 µM
  pIC50: 8.12
Second compound 0.00949 µM
  pIC50: 8.08
Second compound 0.03 µM
  pIC50: 8.17
Second compound 0.0949 µM
  pIC50: 8.16
Second compound 0.3 µM
  pIC50: 8.33
Second compound 0.000949 µM, first compound 0.00316 µM
  viability, T/C: 72.5%
Second compound 0.000949 µM, first compound 0.01 µM
  viability, T/C: 45.1%
Second compound 0.000949 µM, first compound 0.0316 µM
  viability, T/C: 4.63%
Second compound 0.000949 µM, first compound 0.1 µM
  viability, T/C: 3.49%
Second compound 0.000949 µM, first compound 0.316 µM
  viability, T/C: 1.64%
Second compound 0.000949 µM, first compound 1 µM
  viability, T/C: 0.82%
Second compound 0.003 µM, first compound 0.00316 µM
  viability, T/C: 72.3%
Second compound 0.003 µM, first compound 0.01 µM
  viability, T/C: 43.3%
Second compound 0.003 µM, first compound 0.0316 µM
  viability, T/C: 4.76%
Second compound 0.003 µM, first compound 0.1 µM
  viability, T/C: 3.09%
Second compound 0.003 µM, first compound 0.316 µM
  viability, T/C: 1.48%
Second compound 0.003 µM, first compound 1 µM
  viability, T/C: 0.53%
Second compound 0.00949 µM, first compound 0.00316 µM
  viability, T/C: 72.4%
Second compound 0.00949 µM, first compound 0.01 µM
  viability, T/C: 45.5%
Second compound 0.00949 µM, first compound 0.0316 µM
  viability, T/C: 5.4%
Second compound 0.00949 µM, first compound 0.1 µM
  viability, T/C: 3.03%
Second compound 0.00949 µM, first compound 0.316 µM
  viability, T/C: 1.85%
Second compound 0.00949 µM, first compound 1 µM
  viability, T/C: 0.35%
Second compound 0.03 µM, first compound 0.00316 µM
  viability, T/C: 71.6%
Second compound 0.03 µM, first compound 0.01 µM
  viability, T/C: 38.9%
Second compound 0.03 µM, first compound 0.0316 µM
  viability, T/C: 5.26%
Second compound 0.03 µM, first compound 0.1 µM
  viability, T/C: 3.43%
Second compound 0.03 µM, first compound 0.316 µM
  viability, T/C: 1.55%
Second compound 0.03 µM, first compound 1 µM
  viability, T/C: 0.48%
Second compound 0.0949 µM, first compound 0.00316 µM
  viability, T/C: 73%
Second compound 0.0949 µM, first compound 0.01 µM
  viability, T/C: 38.8%
Second compound 0.0949 µM, first compound 0.0316 µM
  viability, T/C: 4.74%
Second compound 0.0949 µM, first compound 0.1 µM
  viability, T/C: 2.54%
Second compound 0.0949 µM, first compound 0.316 µM
  viability, T/C: 1.48%
Second compound 0.0949 µM, first compound 1 µM
  viability, T/C: 0.61%
Second compound 0.3 µM, first compound 0.00316 µM
  viability, T/C: 60.2%
Second compound 0.3 µM, first compound 0.01 µM
  viability, T/C: 29.6%
Second compound 0.3 µM, first compound 0.0316 µM
  viability, T/C: 3.92%
Second compound 0.3 µM, first compound 0.1 µM
  viability, T/C: 2.9%
Second compound 0.3 µM, first compound 0.316 µM
  viability, T/C: 0.95%
Second compound 0.3 µM, first compound 1 µM
  viability, T/C: 0.52%

## CC(C)NCC(C(=O)N1CCN(c2ncnc3c2C(C)CC3O)CC1)c1ccc(Cl)cc1 (centres undefined) + C=CC(=O)N1CCN(c2nc(OCC3CCCN3C)nc3c(F)c(-c4nc(N)cc(C)c4C(F)(F)F)c(Cl)cc23)C(C)C1
Second compound 0.00316 µM
  pIC50: 5.31
Second compound 0.01 µM
  pIC50: 5.28
Second compound 0.0316 µM
  pIC50: 5.28
Second compound 0.1 µM
  pIC50: 5.23
Second compound 0.316 µM
  pIC50: 5.22
Second compound 1 µM
  pIC50: 5.22
Second compound 0.00316 µM, first compound 0.0316 µM
  viability, T/C: 106%
Second compound 0.00316 µM, first compound 0.1 µM
  viability, T/C: 97.3%
Second compound 0.00316 µM, first compound 0.316 µM
  viability, T/C: 99.6%
Second compound 0.00316 µM, first compound 1 µM
  viability, T/C: 84.4%
Second compound 0.00316 µM, first compound 3.16 µM
  viability, T/C: 60.3%
Second compound 0.00316 µM, first compound 10 µM
  viability, T/C: 33%
Second compound 0.01 µM, first compound 0.0316 µM
  viability, T/C: 110%
Second compound 0.01 µM, first compound 0.1 µM
  viability, T/C: 105%
Second compound 0.01 µM, first compound 0.316 µM
  viability, T/C: 102%
Second compound 0.01 µM, first compound 1 µM
  viability, T/C: 81.3%
Second compound 0.01 µM, first compound 3.16 µM
  viability, T/C: 60.9%
Second compound 0.01 µM, first compound 10 µM
  viability, T/C: 36.8%
Second compound 0.0316 µM, first compound 0.0316 µM
  viability, T/C: 110%
Second compound 0.0316 µM, first compound 0.1 µM
  viability, T/C: 101%
Second compound 0.0316 µM, first compound 0.316 µM
  viability, T/C: 104%
Second compound 0.0316 µM, first compound 1 µM
  viability, T/C: 82.7%
Second compound 0.0316 µM, first compound 3.16 µM
  viability, T/C: 65.1%
Second compound 0.0316 µM, first compound 10 µM
  viability, T/C: 32.6%
Second compound 0.1 µM, first compound 0.0316 µM
  viability, T/C: 103%
Second compound 0.1 µM, first compound 0.1 µM
  viability, T/C: 110%
Second compound 0.1 µM, first compound 0.316 µM
  viability, T/C: 99%
Second compound 0.1 µM, first compound 1 µM
  viability, T/C: 89%
Second compound 0.1 µM, first compound 3.16 µM
  viability, T/C: 58.9%
Second compound 0.1 µM, first compound 10 µM
  viability, T/C: 41.9%
Second compound 0.316 µM, first compound 0.0316 µM
  viability, T/C: 106%
Second compound 0.316 µM, first compound 0.1 µM
  viability, T/C: 105%
Second compound 0.316 µM, first compound 0.316 µM
  viability, T/C: 96.3%
Second compound 0.316 µM, first compound 1 µM
  viability, T/C: 83.7%
Second compound 0.316 µM, first compound 3.16 µM
  viability, T/C: 72.8%
Second compound 0.316 µM, first compound 10 µM
  viability, T/C: 33.6%
Second compound 1 µM, first compound 0.0316 µM
  viability, T/C: 88.7%
Second compound 1 µM, first compound 0.1 µM
  viability, T/C: 104%
Second compound 1 µM, first compound 0.316 µM
  viability, T/C: 105%
Second compound 1 µM, first compound 1 µM
  viability, T/C: 89.5%
Second compound 1 µM, first compound 3.16 µM
  viability, T/C: 73.7%
Second compound 1 µM, first compound 10 µM
  viability, T/C: 31.7%
